Measured values reported in publication PMC12785511, “Integrative Profiling for BBB Permeability Using Capillary Electrochromatography, Experimental Physicochemical Parameters, and Ensemble Machine Learning” (International Journal of Molecular Sciences, 2025).
Like-named read-outs stand apart in the source and are kept apart here.

Legend:
[1] = open-tubular capillary electrochromatography (CEC), permeability k′ parameter; type: in vitro ADME; settings: pH 7.4 HEPES buffer 40 mM, migration times in coated and uncoated capillary, mean ± SD of three independent experiments
Experimental: The separation HEPES buffer, POPC/PS liposomes (80:20 mol% ratio; large unilamellar vesicles type; LUV), and test samples were prepared according to the protocol described earlier [45]. […] To complete the coating procedure, the capillary was left to stand filled with the liposome solution for 15 min.
Since the reference drugs tested in this study are compounds ionized at pH 7.4, their migration times determined in the uncoated and coated capillary variants were used in the k′ permeability parameter calculations. At first, the experiments were conducted in the liposome-untreated capillary. Next, after coating the capillary with the inner liposomal layer, the migration times of analytes were evaluated once again in the coated one. […] The pH 7.4 HEPES buffer (40 mM) was used as the background electrolyte solution in all CEC experiments.
The CEC permeability k′ parameter was calculated for each reference drug based on its experimentally determined migration times in the uncoated and coated capillary variants using Equation (2) [56]:(2) k^′=tR(1/tEOF+ 1/tR^′− 1/tEOF^′)−1 where tR and tEOF are the migration times of the analyte and EOF marker in the coated capillary, respectively, and tR′ and tEOF′ are analogical migration times in the uncoated capillary.

physchem [2] = test: physchem
Experimental: (§1) Using the Sirius T3 device, the physicochemical properties of the reference drugs were determined by automated potentiometric titrations. The compounds’ acidity was measured by determining their pKa parameters. […] The obtained psKa values were next extrapolated to the 0% content of methanol (pure ISA water) using the Yasuda–Shedlovsky extrapolation plots. The lipophilicity of the research compounds (log P parameters) was measured by the automated potentiometric method as well, based on the previously obtained compounds’ pKa values. The aqueous pH-metric titrations were carried out in the presence of n-octanol—an immiscible water partition solvent. […] The log P parameters were determined based on the differences between the apparent poKa and aqueous pKa values in three independent titrations conducted with diverse volume ratios of the aqueous and n-octanol phases. Log D7.4 values were calculated automatically by the Sirius T3 Refine software (version 2.0.0.0) based on the obtained log P and pKa values.

[3] = cited from earlier work
physchem [4] = test: physchem; remark: listed apart in the source
Experimental: as §1

[5] = Sirius T3 automated potentiometric (pH-metric) titrations, pKa
Experimental: as §1

| SMILES | k′ ± SD (CEC) [1] | pKa (physchem [2]) | Log BB ([3]; experimental in vivo measurements from rats, data retrieved from literature) | logP (physchem [4]) | logD (physchem [4]; pH 7.4) | pKa [5] | Log BB ([3]; rat, in vivo) |
| --- | --- | --- | --- | --- | --- | --- | --- |
| CCCN(CCC)CCc1cccc2c1CC(=O)N2 [ropinirole] | −0.01252 ± 0.00126 | 9.7 ± 0.05 | – | – | – | – | – |
| O=C(O)CCCc1ccc(N(CCCl)CCCl)cc1 [chlorambucil] | 0.00397 ± 0.00087 | – | −1.70 | 3.71 ± 0.02 | 1.07 | 4.72 ± 0.04 | – |
| CNC(=O)Oc1ccc2c(c1)[C@]1(C)CCN(C)[C@@H]1N2C [physostigmine] | 0.01268 ± 0.00087 | 8.24 ± 0.04 | – | – | – | – | 0.08 |
